From patent EP0451834B1, “Alpha-mannosidase and fucosidase inhibitors” (MERRELL PHARMACEUTICALS INC., priority 1990, dated 1991)

Molecular target: T1, α-Mannosidase (Jack bean) (Canavalia ensiformis, UniProt C0HJB3)
T1 sequence (C0HJB3 1-981): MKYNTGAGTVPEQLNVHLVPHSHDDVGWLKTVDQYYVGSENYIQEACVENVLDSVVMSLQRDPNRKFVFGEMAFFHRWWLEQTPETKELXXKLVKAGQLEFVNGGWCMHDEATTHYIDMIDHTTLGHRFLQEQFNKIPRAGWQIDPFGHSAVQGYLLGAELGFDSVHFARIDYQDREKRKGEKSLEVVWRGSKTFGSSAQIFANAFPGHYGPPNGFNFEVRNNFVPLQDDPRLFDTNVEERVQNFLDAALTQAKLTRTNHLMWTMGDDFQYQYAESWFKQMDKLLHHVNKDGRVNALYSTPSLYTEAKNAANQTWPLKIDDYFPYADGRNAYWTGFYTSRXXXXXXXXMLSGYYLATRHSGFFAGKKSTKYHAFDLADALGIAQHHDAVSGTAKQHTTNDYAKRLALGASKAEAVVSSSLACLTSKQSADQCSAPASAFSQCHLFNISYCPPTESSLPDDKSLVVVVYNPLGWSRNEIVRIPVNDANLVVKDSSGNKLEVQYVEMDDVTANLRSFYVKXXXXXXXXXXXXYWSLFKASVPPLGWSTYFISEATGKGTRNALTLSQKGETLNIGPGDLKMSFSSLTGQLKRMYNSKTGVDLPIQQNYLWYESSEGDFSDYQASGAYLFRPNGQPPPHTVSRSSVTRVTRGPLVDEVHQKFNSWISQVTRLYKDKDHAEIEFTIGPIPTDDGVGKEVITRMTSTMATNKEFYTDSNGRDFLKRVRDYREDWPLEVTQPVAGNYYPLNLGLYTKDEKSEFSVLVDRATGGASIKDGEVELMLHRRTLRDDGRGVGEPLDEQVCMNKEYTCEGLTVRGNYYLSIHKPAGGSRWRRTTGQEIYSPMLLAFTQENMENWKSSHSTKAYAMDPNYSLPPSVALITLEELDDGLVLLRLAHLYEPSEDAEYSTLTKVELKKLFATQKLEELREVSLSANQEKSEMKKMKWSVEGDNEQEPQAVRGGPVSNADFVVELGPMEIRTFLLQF
Test: Mannosidase screening assay (p-nitrophenyl-α-mannopyranoside substrate, absorbance at 405 nm)
Assay type: biochemical
Details: Jack bean enzyme, sodium acetate buffer pH 4.5, 37° for 30 min
Experimental: This can be demostrated by the ability of the compound to inhibit Jack bean mannosidase or mannosidase II as follows: Mannosidase Screening Assay (Kang, et al., Plant Physiol. 71:551-554 (1983)). Activities of mannosidase are first screened with Jack bean enzyme using p-nitrophenyl substrate as follows using a 96-well microplate. Total Rxn mix 200µl. • 1. Add compounds to be tested and dilute to 100µl with H2O. • 2. Add 25µl of 1M sodium acetate buffer pH 4.5 containing 10mM ZnCl2. • 3. Add 25µl of enzyme or approximately 0.05 µg protein. • 4. Mix and incubate at R.T. for 30 min. • 5. Add 50µl of 10 mM p-nitrophenyl-α-mannopyranoside in H2O to start the Rxn and incubate 37° for 30 min. Stop reaction by addition 100µl of 0.2M (2%) sodium carbonate solution (pH∼12). Read absorbance at 405 nm.

## CN[C@@H]1[C@@H](O)[C@@H](O)[C@H](O)[C@H]1CO [1,3β,5β,R=CH3, (1α,2β,3β,4α,5β)-Methyl[2,3,4-trihydroxy-5-(hydroxymethyl)cyclopentyl]amine]
  IC50: 62.1 nM
